# Laboratory results: patent US10800792B2, “Inhibitors of Bruton's tyrosine kinase and method of their use” (JANSSEN PHARMACEUTICA NV, priority 2015, dated 2020)
# Target: unphosphorylated-BTK kinase domain (UP-BTK), GST-tagged human BTK (389-659aa) (Homo sapiens (Human), UniProt Q06187)
# Test: BTK kinase Lanthascreen binding assay
# Details: unphosphorylated-BTK kinase domain, 50 nM Tracer 236, 60 minutes; pIC50 = negative log of the IC50 in molar
# Summary of the method: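 A fluorescent tracer is bound to unphosphorylated BTK; test compound is added to compete it off; the Lanthascreen signal is read and IC50 is fitted, then reported as its negative log in molar.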
# Chain of unphosphorylated-BTK kinase domain (UP-BTK), GST-tagged human BTK (389-659aa) (Q06187 389-659): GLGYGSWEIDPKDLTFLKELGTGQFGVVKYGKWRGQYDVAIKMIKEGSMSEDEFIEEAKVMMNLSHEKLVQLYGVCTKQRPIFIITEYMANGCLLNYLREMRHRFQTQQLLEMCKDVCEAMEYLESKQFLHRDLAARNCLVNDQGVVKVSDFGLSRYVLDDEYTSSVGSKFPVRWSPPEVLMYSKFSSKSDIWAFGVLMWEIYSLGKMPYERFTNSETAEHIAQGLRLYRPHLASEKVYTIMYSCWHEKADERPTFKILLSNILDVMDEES
row,SMILES,BTK_I_binding pIC50
1,"Cc1cc(Oc2ccccc2)ccc1N1C(=O)Nc2c(C(=O)N[C@@H]3CCNC(C)C3)sc3nccc1c23 (single isomer, unassigned) [Example 435, 5-(*R)-(2-Methyl-4-phenoxyphenyl)-N-((4*R)-2-methylpiperidin-4-yl)-4-oxo-4,5-dihydro-3H-1-thia-3,5,8-triazaacenaphthylene-2-carboxamide]",5.9
2,"CC(C)=C(Cl)C(=O)N1CCC[C@@H](NC(=O)c2sc3nccc4c3c2NC(=O)N4c2ccc(Oc3ccccc3)cc2C)C1 (single isomer, unassigned) [Example 438, (R)—N-(1-(2-Chloro-3-methylbut-2-enoyl)piperidin-3-yl)-5-(*S)-(2-methyl-4-phenoxyphenyl)-4-oxo-4,5-dihydro-3H-1-thia-3,5,8-triazaacenaphthylene-2-carboxamide]",6.7
3,"CC(C)=C(Cl)C(=O)N1CCC[C@@H](NC(=O)c2sc3nccc4c3c2NC(=O)N4c2ccc(Oc3ccccc3)cc2C)C1 (single isomer, unassigned) [Example 439, (R)—N-(1-(2-Chloro-3-methylbut-2-enoyl)piperidin-3-yl)-5-(*R)-(2-methyl-4-phenoxyphenyl)-4-oxo-4,5-dihydro-3H-1-thia-3,5,8-triazaacenaphthylene-2-carboxamide]",5.7
4,"C=CC(=O)N1CC[C@@H](N(C)C(=O)c2sc3nccc4c3c2NC(=O)N4c2ccc(Oc3ccccc3)cc2C)C1 (single isomer, unassigned) [Example 441, (R)—N-(1-Acryloylpyrrolidin-3-yl)-N-methyl-5-(*S)-(2-methyl-4-phenoxyphenyl)-4-oxo-4,5-dihydro-3H-1-thia-3,5,8-triazaacenaphthylene-2-carboxamide]",5.9
5,"C=CC(=O)N1CC[C@@H](N(C)C(=O)c2sc3nccc4c3c2NC(=O)N4c2ccc(Oc3ccccc3)cc2C)C1 (single isomer, unassigned) [Example 442, (R)—N-(1-Acryloylpyrrolidin-3-yl)-N-methyl-5-(*R)-(2-methyl-4-phenoxyphenyl)-4-oxo-4,5-dihydro-3H-1-thia-3,5,8-triazaacenaphthylene-2-carboxamide]",6.9
6,"COC(C)(C)/C=C(\C#N)C(=O)N1CCC[C@@H](NC(=O)c2sc3nccc4c3c2NC(=O)N4c2ccc(Oc3ccccc3)cc2C)C1 (single isomer, unassigned) [Example 450, (R,*E)-N-(1-(2-Cyano-4-methoxy-4-methylpent-2-enoyl)piperidin-3-yl)-5-(*S)-(2-methyl-4-phenoxyphenyl)-4-oxo-4,5-dihydro-3H-1-thia-3,5,8-triazaacenaphthylene-2-carboxamide]",7.6
7,"Cc1cc(Oc2ccccc2)ccc1N1C(=O)Nc2c(C(=O)N[C@@H]3CNC(=O)C3)sc3nccc1c23 (single isomer, unassigned) [Example 469, (*S)-5-(*S)-(2-Methyl-4-phenoxyphenyl)-4-oxo-N-(5-oxopyrrolidin-3-yl)-4,5-dihydro-3H-1-thia-3,5,8-triazaacenaphthylene-2-carboxamide]",7.1
8,"Cc1cc(Oc2ccccc2)ccc1N1C(=O)Nc2c(C(=O)N[C@@H]3CNC(=O)C3)sc3nccc1c23 (single isomer, unassigned) [Example 470, (*S)-5-(*R)-(2-Methyl-4-phenoxyphenyl)-4-oxo-N-(5-oxopyrrolidin-3-yl)-4,5-dihydro-3H-1-thia-3,5,8-triazaacenaphthylene-2-carboxamide]",5.6
9,"Cc1cc(Oc2ccccc2)ccc1N1C(=O)Nc2c(C(=O)N[C@H]3CNC(=O)C3)sc3nccc1c23 (single isomer, unassigned) [Example 471, (*R)-5-(*S)-(2-Methyl-4-phenoxyphenyl)-4-oxo-N-(5-oxopyrrolidin-3-yl)-4,5-dihydro-3H-1-thia-3,5,8-triazaacenaphthylene-2-carboxamide]",5.9
10,"Cc1cc(Oc2ccccc2)ccc1N1C(=O)Nc2c(C(=O)N[C@H]3CNC(=O)C3)sc3nccc1c23 (single isomer, unassigned) [Example 472, (*R)-5-(*R)-(2-Methyl-4-phenoxyphenyl)-4-oxo-N-(5-oxopyrrolidin-3-yl)-4,5-dihydro-3H-1-thia-3,5,8-triazaacenaphthylene-2-carboxamide]",7.4
11,"C/C=C/C(=O)N1CCC[C@@H](NC(=O)c2sc3nccc4c3c2NC(=O)N4c2ccc(Oc3ccccc3)cc2C)C1 (single isomer, unassigned) [Example 473, (R,*E)-N-(1-(But-2-enoyl)piperidin-3-yl)-5-(*S)-(2-methyl-4-phenoxyphenyl)-4-oxo-4,5-dihydro-3H-1-thia-3,5,8-triazaacenaphthylene-2-carboxamide]",5.9
12,"C/C=C/C(=O)N1CCC[C@@H](NC(=O)c2sc3nccc4c3c2NC(=O)N4c2ccc(Oc3ccccc3)cc2C)C1 (single isomer, unassigned) [Example 474, (R,*E)-N-(1-(But-2-enoyl)piperidin-3-yl)-5-(*R)-(2-methyl-4-phenoxyphenyl)-4-oxo-4,5-dihydro-3H-1-thia-3,5,8-triazaacenaphthylene-2-carboxamide]",7.6
13,"C=CC(=O)N1CCC[C@@H](NC(=O)c2sc3nccc4c3c2NC(=O)N4c2ccc(OC3CCC3)cc2C)C1 (single isomer, unassigned) [Example 501, (R)—N-(1-Acryloylpiperidin-3-yl)-5-(*S)-(4-cyclobutoxy-2-methylphenyl)-4-oxo-4,5-dihydro-3H-1-thia-3,5,8-triazaacenaphthylene-2-carboxamide]",7.9

# Further lines, results first:
row,BTK_I_binding pIC50,SMILES
1,6.1,"C/C=C\C(=O)N1CCC[C@@H](NC(=O)c2sc3nccc4c3c2NC(=O)N4c2ccc(Oc3ccccc3)cc2C)C1 (single isomer, unassigned) [Example 475, (R,*Z)—N-(1-(But-2-enoyl)piperidin-3-yl)-5-(*R)-(2-methyl-4-phenoxyphenyl)-4-oxo-4,5-dihydro-3H-1-thia-3,5,8-triazaacenaphthylene-2-carboxamide]"
2,7.4,"C/C=C\C(=O)N1CCC[C@@H](NC(=O)c2sc3nccc4c3c2NC(=O)N4c2ccc(Oc3ccccc3)cc2C)C1 (single isomer, unassigned) [Example 476, (R,*Z)—N-(1-(But-2-enoyl)piperidin-3-yl)-5-(*S)-(2-methyl-4-phenoxyphenyl)-4-oxo-4,5-dihydro-3H-1-thia-3,5,8-triazaacenaphthylene-2-carboxamide]"
3,7.9,"Cc1cc(Oc2ccccc2)ccc1N1C(=O)Nc2c(C(=O)NC3COCCN(C#N)C3)sc3nccc1c23 (single isomer, unassigned) [Example 485, N-(4-Cyano-1,4-oxazepan-6-yl)-5-(*S)-(2-methyl-4-phenoxyphenyl)-4-oxo-4,5-dihydro-3H-1-thia-3,5,8-triazaacenaphthylene-2-carboxamide]"
4,7.2,"Cc1cc(Oc2ccccc2)ccc1N1C(=O)Nc2c(C(=O)N[C@@H]3CCCN(C(=O)/C=C/CN(C)C)C3)sc3nccc1c23 (single isomer, unassigned) [Example 488, (R,E)-N-(1-(4-(Dimethylamino)but-2-enoyl)piperidin-3-yl)-5-(*S)-(2-methyl-4-phenoxyphenyl)-4-oxo-4,5-dihydro-3H-1-thia-3,5,8-triazaacenaphthylene-2-carboxamide]"
5,7.6,"Cc1cc(Oc2ccccc2)ccc1N1C(=O)Nc2c(C(=O)N[C@@H]3CCN(C(=O)/C(C#N)=C/C4CC4)C3)sc3nccc1c23 (single isomer, unassigned) [Example 491, (R,E)-N-(1-(2-Cyano-3-cyclopropylacryloyl)pyrrolidin-3-yl)-5-(*S)-(2-methyl-4-phenoxyphenyl)-4-oxo-4,5-dihydro-3H-1-thia-3,5,8-triazaacenaphthylene-2-carboxamide]"
6,8.0,"CNC/C=C/C(=O)N1CC[C@@H](NC(=O)c2sc3nccc4c3c2NC(=O)N4c2ccc(Oc3ccccc3)cc2C)C1 (single isomer, unassigned) [Example 492, (R,E)-5-(*S)-(2-Methyl-4-phenoxyphenyl)-N-(1-(4-(methylamino)but-2-enoyl)pyrrolidin-3-yl)-4-oxo-4,5-dihydro-3H-1-thia-3,5,8-triazaacenaphthylene-2-carboxamide]"
7,6.9,"Cc1cc(Oc2ccccc2)ccc1N1C(=O)Nc2c(C(=O)N[C@@H]3CCN(C)C3)sc3nccc1c23 (single isomer, unassigned) [Example 493, (R)-5-(*S)-(2-Methyl-4-phenoxyphenyl)-N-(1-methylpyrrolidin-3-yl)-4-oxo-4,5-dihydro-3H-1-thia-3,5,8-triazaacenaphthylene-2-carboxamide]"
8,8.0,"Cc1cc(Oc2ccccc2)ccc1N1C(=O)Nc2c(C(=O)N[C@@H]3CCN(C(=O)CCS(C)(=O)=O)C3)sc3nccc1c23 (single isomer, unassigned) [Example 494, (R)-5-(*S)-(2-Methyl-4-phenoxyphenyl)-N-(1-(3-(methylsulfonyl)propanoyl)pyrrolidin-3-yl)-4-oxo-4,5-dihydro-3H-1-thia-3,5,8-triazaacenaphthylene-2-carboxamide]"
9,7.5,"COCC(=O)N1CCC[C@@H](NC(=O)c2sc3nccc4c3c2NC(=O)N4c2ccc(Oc3ccccc3)cc2C)C1 (single isomer, unassigned) [Example 495, (R)—N-(1-(2-Methoxyacetyl)piperidin-3-yl)-5-(*S)-(2-methyl-4-phenoxyphenyl)-4-oxo-4,5-dihydro-3H-1-thia-3,5,8-triazaacenaphthylene-2-carboxamide]"
10,7.9,"Cc1cc(Oc2ccccc2)ccc1N1C(=O)Nc2c(C(=O)N[C@@H]3CCN(C(=O)/C=C/CN(C)C)C3)sc3nccc1c23 (single isomer, unassigned) [Example 502, (R,E)-N-(1-(4-(Dimethylamino)but-2-enoyl)pyrrolidin-3-yl)-5-(*S)-(2-methyl-4-phenoxyphenyl)-4-oxo-4,5-dihydro-3H-1-thia-3,5,8-triazaacenaphthylene-2-carboxamide]"
